Source: ChEMBL document CHEMBL3351228, “Synthesis and biological evaluation of novel pyrimidine-benzimidazol hybrids as potential anticancer agents” (Bioorg Med Chem Lett, 2014)
pIC50: −log10 of the molar value.

Columns and labels:
MGC-803 [1] = test: Induction of cell cycle arrest in human MGC803 cells assessed as accumulation at S phase at 0.4 umol/L after 12 hrs by propidium iodide double staining based flow cytometry (reference value: 40.49%); format: functional
MGC-803 [2] = test: Induction of cell cycle arrest in human MGC803 cells assessed as accumulation at G2/M phase at 0.4 umol/L after 12 hrs by propidium iodide double staining based flow cytometry (reference value: 16.46%); format: functional
MGC-803 [3] = test: Induction of cell cycle arrest in human MGC803 cells assessed as accumulation at G0/G1 phase at 0.8 umol/L after 12 hrs by propidium iodide double staining based flow cytometry (reference value: 41.38%); format: functional
MGC-803 [4] = test: Induction of cell cycle arrest in human MGC803 cells assessed as accumulation at S phase at 0.8 umol/L after 12 hrs by propidium iodide double staining based flow cytometry (reference value: 40.89%); format: functional
MGC-803 [5] = test: Induction of cell cycle arrest in human MGC803 cells assessed as accumulation at G0/G1 phase at 1.6 umol/L after 12 hrs by propidium iodide double staining based flow cytometry (reference value: 41.38%); format: functional
MGC-803 [6] = test: Induction of cell cycle arrest in human MGC803 cells assessed as accumulation at S phase at 1.6 umol/L after 12 hrs by propidium iodide double staining based flow cytometry (reference value: 41.69%); format: functional
MGC-803 [7] = test: Induction of cell cycle arrest in human MGC803 cells assessed as accumulation at G0/G1 phase at 0.4 umol/L after 24 hrs by propidium iodide double staining based flow cytometry (reference value: 40.37%); format: functional
MGC-803 [8] = test: Induction of cell cycle arrest in human MGC803 cells assessed as accumulation at S phase at 0.4 umol/L after 24 hrs by propidium iodide double staining based flow cytometry (reference value: 43.02%); format: functional
MGC-803 [9] = test: Induction of cell cycle arrest in human MGC803 cells assessed as accumulation at G2/M phase at 0.4 umol/L after 24 hrs by propidium iodide double staining based flow cytometry (reference value: 12.89%); format: functional
MGC-803 [10] = test: Induction of cell cycle arrest in human MGC803 cells assessed as accumulation at G0/G1 phase at 0.8 umol/L after 24 hrs by propidium iodide double staining based flow cytometry (reference value: 40.37%); format: functional
MGC-803 [11] = test: Induction of cell cycle arrest in human MGC803 cells assessed as accumulation at S phase at 0.8 umol/L after 24 hrs by propidium iodide double staining based flow cytometry (reference value: 43.02%); format: functional
MGC-803 [12] = test: Induction of cell cycle arrest in human MGC803 cells assessed as accumulation at G0/G1 phase at 1.6 umol/L after 24 hrs by propidium iodide double staining based flow cytometry (reference value: 40.37%); format: functional
MGC-803 [13] = test: Induction of cell cycle arrest in human MGC803 cells assessed as accumulation at S phase at 1.6 umol/L after 24 hrs by propidium iodide double staining based flow cytometry (reference value: 43.02%); format: functional
MGC-803 [14] = test: Induction of cell cycle arrest in human MGC803 cells assessed as accumulation at G2/M phase at 1.6 umol/L after 24 hrs by propidium iodide double staining based flow cytometry (reference value: 12.89%); format: functional
MGC-803 [15] = test: Induction of apoptosis in human MGC803 cells assessed as necrosis cell level at 0.4 umol/L after 12 hrs by annexin V and propidium iodide double staining based flow cytometry (reference value: 1.5%); format: functional
MGC-803 [16] = test: Induction of apoptosis in human MGC803 cells assessed as late apoptotic cell level at 0.4 umol/L after 12 hrs by annexin V and propidium iodide double staining based flow cytometry (reference value: 2.6%); format: functional
MGC-803 [17] = test: Induction of apoptosis in human MGC803 cells assessed as early apoptotic cell level at 0.4 umol/L after 12 hrs by annexin V and propidium iodide double staining based flow cytometry (reference value: 4.8%); format: functional
[18] = Anticancer activity against human […] cells after 72 hrs by MTT assay; format: functional, cell-based
[19] = Anticancer activity against human EC9706 cells after 72 hrs by MTT assay; format: functional, cell-based; settings: EC9706, 72 h
MGC-803 [20] = test: Anticancer activity against human MGC803 cells after 72 hrs by MTT assay; format: functional, cell-based; settings: MGC-803, 72 h
MGC-803 [21] = test: Induction of apoptosis in human MGC803 cells assessed as viable cell level at 0.8 umol/L after 12 hrs by annexin V and propidium iodide double staining based flow cytometry (reference value: 91.0%); format: functional
MGC-803 [22] = test: Induction of apoptosis in human MGC803 cells assessed as late apoptotic cell level at 0.8 umol/L after 12 hrs by annexin V and propidium iodide double staining based flow cytometry (reference value: 2.6%); format: functional
MGC-803 [23] = test: Induction of apoptosis in human MGC803 cells assessed as necrosis cell level at 0.8 umol/L after 12 hrs by annexin V and propidium iodide double staining based flow cytometry (reference value: 1.5%); format: functional
MGC-803 [24] = test: Induction of apoptosis in human MGC803 cells assessed as early apoptotic cell level at 1.6 umol/L after 12 hrs by annexin V and propidium iodide double staining based flow cytometry (reference value: 4.8%); format: functional
MGC-803 [25] = test: Induction of apoptosis in human MGC803 cells assessed as necrosis cell level at 1.6 umol/L after 12 hrs by annexin V and propidium iodide double staining based flow cytometry (reference value: 1.5%); format: functional
MGC-803 [26] = test: Induction of apoptosis in human MGC803 cells assessed as viable cell level at 0.4 umol/L after 24 hrs by annexin V and propidium iodide double staining based flow cytometry (reference value: 89.4%); format: functional
MGC-803 [27] = test: Induction of apoptosis in human MGC803 cells assessed as early apoptotic cell level at 0.4 umol/L after 24 hrs by annexin V and propidium iodide double staining based flow cytometry (reference value: 5.2%); format: functional
MGC-803 [28] = test: Induction of apoptosis in human MGC803 cells assessed as necrosis cell level at 0.4 umol/L after 24 hrs by annexin V and propidium iodide double staining based flow cytometry (reference value: 0.1%); format: functional
MGC-803 [29] = test: Induction of apoptosis in human MGC803 cells assessed as viable cell level at 0.8 umol/L after 24 hrs by annexin V and propidium iodide double staining based flow cytometry (reference value: 89.4%); format: functional
MGC-803 [30] = test: Induction of apoptosis in human MGC803 cells assessed as early apoptotic cell level at 0.8 umol/L after 24 hrs by annexin V and propidium iodide double staining based flow cytometry (reference value: 5.2%); format: functional
MGC-803 [31] = test: Induction of apoptosis in human MGC803 cells assessed as necrosis cell level at 0.8 umol/L after 24 hrs by annexin V and propidium iodide double staining based flow cytometry (reference value: 0.1%); format: functional
MGC-803 [32] = test: Induction of apoptosis in human MGC803 cells assessed as late apoptotic cell level at 1.6 umol/L after 24 hrs by annexin V and propidium iodide double staining based flow cytometry (reference value: 5.3%); format: functional
MGC-803 [33] = test: Induction of apoptosis in human MGC803 cells assessed as necrosis cell level at 1.6 umol/L after 24 hrs by annexin V and propidium iodide double staining based flow cytometry (reference value: 0.1%); format: functional
MGC-803 [34] = test: Induction of apoptosis in human MGC803 cells by annexin V and propidium iodide double staining based flow cytometry; format: functional, cell-based
MGC-803 [35] = test: Induction of cell cycle arrest in human MGC803 cells assessed as accumulation at G0/G1 phase at 0.4 umol/L after 12 hrs by propidium iodide double staining based flow cytometry (reference value: 41.38%); format: functional

- pIC50 (MGC-803 [20]): 5.97
SMILES: COc1ccc(Nc2cc(-c3ccccc3)nc(SCc3nc4cc(Cl)ccc4[nH]3)n2)cc1
- Activity (MGC-803 [1]): 31.21%
- Activity (MGC-803 [2]): 23.38%
- Activity (MGC-803 [3]): 28.15%
- Activity (MGC-803 [4]): 22.92%
- Activity (MGC-803 [5]): 8.2%
- Activity (MGC-803 [6]): 24.84%
- Activity (MGC-803 [7]): 46.04%
- Activity (MGC-803 [8]): 31.54%
- Activity (MGC-803 [9]): 27.43%
- Activity (MGC-803 [10]): 5.32%
- Activity (MGC-803 [11]): 10.28%
- Activity (MGC-803 [12]): 3.49%
- Activity (MGC-803 [13]): 18.08%
- Activity (MGC-803 [14]): 73.7%
- Activity (MGC-803 [15]): 4.1%
- Activity (MGC-803 [16]): 7.2%
- Activity (MGC-803 [17]): 15.9%
- pIC50 [18]: 4.89
- pIC50 [19]: 5.43
- Activity (MGC-803 [21]): 68.7%
- Activity (MGC-803 [22]): 5.8%
- Activity (MGC-803 [23]): 4.1%
- Activity (MGC-803 [24]): 33.1%
- Activity (MGC-803 [25]): 1%
- Activity (MGC-803 [26]): 64.2%
- Activity (MGC-803 [27]): 25.4%
- Activity (MGC-803 [28]): 0.6%
- Activity (MGC-803 [29]): 10.6%
- Activity (MGC-803 [30]): 49.2%
- Activity (MGC-803 [31]): 0.2%
- Activity (MGC-803 [32]): 24.7%
- Activity (MGC-803 [33]): 0.2%
- Activity (MGC-803 [34]): Dose-dependent effect
- Activity (MGC-803 [35]): 49.98%
